The values below come from US9399626B2, “2-thiopyrimidinones” (Pfizer Inc., priority 2011, dated 2016).

Counter-ions that a name gives are not always drawn.

In one experiment the target is T1, MPO (purified from human polynuclear leukocytes) (Homo sapiens, UniProt P05164).
T1 construct: purified from human polynuclear leukocytes; purchased Calbiochem/EMD Biosciences; host or cells: human polynuclear leukocytes (natural source)
T1 sequence (P05164 279-745 limits assumed): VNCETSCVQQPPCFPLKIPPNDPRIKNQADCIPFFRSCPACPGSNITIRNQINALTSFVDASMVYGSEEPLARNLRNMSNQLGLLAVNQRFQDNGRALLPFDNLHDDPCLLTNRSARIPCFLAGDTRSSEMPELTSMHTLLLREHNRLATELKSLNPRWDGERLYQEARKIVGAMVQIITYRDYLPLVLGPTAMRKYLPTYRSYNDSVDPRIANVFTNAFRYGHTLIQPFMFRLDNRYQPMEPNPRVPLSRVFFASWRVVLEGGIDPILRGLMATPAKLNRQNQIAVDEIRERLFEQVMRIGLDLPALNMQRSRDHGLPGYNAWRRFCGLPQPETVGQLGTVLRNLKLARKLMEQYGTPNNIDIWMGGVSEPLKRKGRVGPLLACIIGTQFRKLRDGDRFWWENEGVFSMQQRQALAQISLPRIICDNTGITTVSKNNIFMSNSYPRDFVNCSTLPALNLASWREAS
T1 sequence (P05164 165-273 limits assumed): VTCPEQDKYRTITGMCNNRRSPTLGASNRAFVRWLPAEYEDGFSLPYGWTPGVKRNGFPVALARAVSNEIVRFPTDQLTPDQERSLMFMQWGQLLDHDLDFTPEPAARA
Description: MPO Amplex Red Activity Assay. The format is biochemical. Particulars: Table 1, 2 μM H2O2, pH 7.4. The essentials:
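Human leukocyte MPO […] oxidises 30 μM Amplex Red with 2 μM H2O2 in 50 mM NaPi pH 7.4, 150 mM NaCl, 1 mM DTPA, 2% DMSO. Resorufin fluorescence (ex 530/em 580 nm) read every 20 s, minus catalase background. kobs from the first 600 s, corrected for auto-inactivation, fit versus [I] for kinact/KI.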
With `COc1ccc(-c2cc(=O)[nH]c(=S)n2CCNC(N)=O)c(OC)c1` [Example 223, 1-{2-[6-(2,4-dimethoxyphenyl)-4-oxo-2-thioxo-3,4-dihydropyrimidin-1(2H)-yl]ethyl}urea], the “MPO kinact/Ki” value is listed as 3000 1/s per M. As to `COc1ccc(Cl)cc1-c1cc(=O)[nH]c(=S)n1CCCNC(C)=O` [Example 134, N-{3-[6-(5-chloro-2-methoxyphenyl)-4-oxo-2-thioxo-3,4-dihydropyrimidin-1(2H)-yl]propyl} acetamide], the “MPO kinact/Ki” value is on record as 5350 1/s per M. Still for that read-out and setting: then `COc1ccc(-c2cc(=O)[nH]c(=S)n2CCC2CCNCC2)c(OC)c1` [Example 152, 6-(2,4-dimethoxyphenyl)-1-(2-piperidin-4-ylethyl)-2-thioxo-2,3-dihydropyrimidin-4(1H)-one hydrochloride], with 4770 1/s per M. Same read-out and setting: to `CCOc1ccc(-c2cc(=O)[nH]c(=S)n2CCOC)cc1` [Example 311, 6-(4-ethoxyphenyl)-1-(2-methoxyethyl)-2-thioxo-2,3-dihydropyrimidin-4(1H)-one] belongs 2080 1/s per M; to `COCCn1c(-c2cccc3ccccc23)cc(=O)[nH]c1=S` [Example 319, 1-(2-methoxyethyl)-6-(1-naphthyl)-2-thioxo-2,3-dihydropyrimidin-4(1H)-one], 7810 1/s per M; to `COc1cc(OC)c(-c2cc(=O)[nH]c(=S)n2CCO)cc1OC` [Example 202, 1-(2-hydroxyethyl)-2-thioxo-6-(2,4,5-trimethoxyphenyl)-2,3-dihydropyrimidin-4(1H)-one], 8280 1/s per M. The same measure, in the same setting: to `COCCn1c(-c2ccc(C)nc2OC)cc(=O)[nH]c1=S` [Example 50, 1-(2-methoxyethyl)-6-(2-methoxy-6-methylpyridin-3-yl)-2-thioxo-2,3-dihydropyrimidin-4(1H)-one] belongs 2610 1/s per M. Regarding `COc1ccc(-c2cc(=O)[nH]c(=S)n2CCNC(C)=O)c(OC)c1` [Example 215, N-{2-[6-(2,4-dimethoxyphenyl)-4-oxo-2-thioxo-3,4-dihydropyrimidin-1(2H)-yl]ethyl}acetamide], the “MPO kinact/Ki” value is recorded as 1920 1/s per M.

On to `COc1ccc(-c2cc(=O)[nH]c(=S)n2CCC2CCN(C(C)=O)CC2)c(OC)c1` [Example 153, 1-[2-(1-acetylpiperidin-4-yl)ethyl]-6-(2,4-dimethoxyphenyl)-2-thioxo-2,3-dihydropyrimidin-4(1H)-one], for which the “MPO kinact/Ki” value is recorded as 2200 1/s per M. As to `NCCCn1c(-c2n[nH]c3ccccc23)cc(=O)[nH]c1=S` [Example 32, 1-(3-aminopropyl)-6-(1H-indazol-3-yl)-2-thioxo-2,3-dihydropyrimidin-4(1H)-one formate], the “MPO kinact/Ki” value was 2120 1/s per M.

As to `COc1ccc(OC)c(-c2cc(=O)[nH]c(=S)n2CCO)c1` [Example 169, 6-(2,5-dimethoxyphenyl)-1-(2-hydroxyethyl)-2-thioxo-2,3-dihydropyrimidin-4(1H)-one], the “MPO kinact/Ki” value is 17800 1/s per M. Same read-out and setting: then `NCCCn1c(-c2cccc3[nH]ccc23)cc(=O)[nH]c1=S` [Example 30, 1-(3-aminopropyl)-6-(1H-indol-4-yl)-2-thioxo-2,3-dihydropyrimidin-4(1H)-one trifluoroacetate], with 5870 1/s per M. `COc1ccc(-c2cc(=O)[nH]c(=S)n2CCCCCO)c(OC)c1` [Example 225, 6-(2,4-dimethoxyphenyl)-1-(5-hydroxypentyl)-2-thioxo-2,3-dihydropyrimidin-4(1H)-one]: the “MPO kinact/Ki” value is on record as 5490 1/s per M. Same read-out and setting: to `COCCn1c(-c2ccccc2F)cc(=O)[nH]c1=S` [Example 158, 6-(2-fluorophenyl)-1-(2-methoxyethyl)-2-thioxo-2,3-dihydropyrimidin-4(1H)-one] belongs 1750 1/s per M; to `COc1ccc(-c2cc(=O)[nH]c(=S)n2CCCCNC(=N)N)c(OC)c1` [Example 253, 1-{4-[6-(2,4-dimethoxyphenyl)-4-oxo-2-thioxo-3,4-dihydropyrimidin-1(2H)-yl]butyl}guanidine], 12700 1/s per M.

Consider `COc1ccc(-c2cc(=O)[nH]c(=S)n2CC(=O)O)c(OC)c1` [Example 89, [6-(2,4-dimethoxyphenyl)-4-oxo-2-thioxo-3,4-dihydropyrimidin-1(2H)-yl]acetic acid], for which the “MPO kinact/Ki” value is listed as 276 1/s per M. The same measure, in the same setting: then `COCCn1c(-c2cccc3c2OCC3)cc(=O)[nH]c1=S` [Example 41, 6-(2,3-dihydro-1-benzofuran-7-yl)-1-(2-methoxyethyl)-2-thioxo-2,3-dihydropyrimidin-4(1H)-one], with 5000 1/s per M; and `COCCn1c(-c2cccc(OC(F)(F)F)c2)cc(=O)[nH]c1=S` [Example 340], with 1450 1/s per M. The same measure, in the same setting: to `CSc1ccccc1-c1cc(=O)[nH]c(=S)n1CCO` [Example 24, 1-(2-hydroxyethyl)-6-[2-(methylthio)phenyl]-2-thioxo-2,3-dihydropyrimidin-4(1H)-one] belongs 7640 1/s per M. The same measure, in the same setting: to `COCCn1c(-c2ccc(Cl)cc2OC)cc(=O)[nH]c1=S` [Example 335, 6-(4-chloro-2-methoxyphenyl) 1-(2-methoxyethyl)-2-thioxo-2,3-dihydropyrimidin-4(1H)-one] belongs 9820 1/s per M; to `COc1ccc(-c2cc(=O)[nH]c(=S)n2CCOC(C)C)c(OC)c1` [Example 226, 6-(2,4-dimethoxyphenyl)-1-(2-isopropoxyethyl)-2-thioxo-2,3-dihydropyrimidin-4(1H)-one], 6280 1/s per M.

`COc1ccccc1-c1cc(=O)[nH]c(=S)n1CCOC(C)C` [Example 173, 1-(2-isopropoxyethyl)-6-(2-methoxyphenyl)-2-thioxo-2,3-dihydropyrimidin-4(1H)-one]: the “MPO kinact/Ki” value was 2910 1/s per M. As to `COCCn1c(-c2ccc3c(c2)OCO3)cc(=O)[nH]c1=S` [Example 309, 6-(1,3-benzodioxol-5-yl)-1-(2-methoxyethyl)-2-thioxo-2,3-dihydropyrimidin-4(1H)-one], the “MPO kinact/Ki” value was 3160 1/s per M.

The same experiment, now with this note: Table 1A, 2 μM H2O2, pH 7.4.
`COc1ccc(-c2cc(=O)[nH]c(=S)n2CC(=O)NCCN)c(OCCO)c1` [Example 404, N-(2-aminoethyl)-2-{6-[2-(2-hydroxyethoxy)-4-methoxyphenyl]-4-oxo-2-thioxo-3,4-dihydropyrimidin-1(2H)-yl}acetamide]: the “MPO kinact/Ki” value is on record as 6200 1/s per M. On the same count and under the same terms, to `COc1ccc(-c2cc(=O)[nH]c(=S)n2CC(=O)N[C@H]2CC[C@@H]2N)c(OC)c1` [Example 439, N-[(1S,2S)-2-aminocyclobutyl]-2-[6-(2,4-dimethoxyphenyl)-4-oxo-2-thioxo-3,4-dihydropyrimidin-1(2H)-yl]acetamide] belongs 9200 1/s per M; to `COc1ccc(Cl)cc1-c1cc(=O)[nH]c(=S)n1CCCNC(=N)NCC(C)(F)F` [Example 451, 1-{3-[6-(5-chloro-2-methoxyphenyl)-4-oxo-2-thioxo-3,4-dihydropyrimidin-1(2H)-yl]propyl}-3-(2,2-difluoropropyl)guanidine], 16000 1/s per M.

Turning to `COc1ccc(-c2cc(=O)[nH]c(=S)n2CC(=O)N[C@H]2CCNC2)c(OC)c1` [Example 393, 2-[6-(2,4-dimethoxyphenyl)-4-oxo-2-thioxo-3,4-dihydropyrimidin-1(2H)-yl]-N-[(3S)-pyrrolidin-3-yl]acetamide], the “MPO kinact/Ki” value is 13600 1/s per M.
